Data on five compounds can be found in patent publication US10793482B2, “Compounds and compositions for delivery of nutrients and micronutrients to plants” (Spero Energy, Inc., priority 2015, dated 2020).

Type in all cases: in vivo
In assay [1] the test system is Calibrachoa plants. In words: Iron content in plant tissue after drench with Fe treatments (elemental analysis), Calibrachoa. The settings on record: 4 ppm drench for 3 weeks; soilless media with lime, target pH 7.0. As to the method:
(§1) In order to establish the efficacy of PP-derived chelates, we applied the PP-Cres-Asp iron chelate to two plant species known in the field to have difficulties in absorbing iron, Calibrachoa and Petunia plants. In this trial, the plants were grown in soilless media (80% peat and 20% perlite) with lime to increase the target pH to 7.0, a pH that is averse to iron uptake in plants. All plants were top dressed with a standard polymer-coated fertilizer to provide the standard nitrogen, phosphorus, and potassium nutrition along with other micro nutrients, excluding iron. Lighting was controlled for 16-hour days. There were 3 treatments of iron added (or not added) to each bucket as follows:
(§2) Treatments 1-3 were applied to the respective plants as a drench for 3 weeks. Following 3 weeks of treatment, tissue samples were gathered from each plant and subjected to elemental analysis for measurement of iron content in the plant tissue.

For assay [2], the system named is Petunia plants. Briefly: Iron content in plant tissue after drench with Fe treatments (elemental analysis), Petunia. The settings on record: 4 ppm drench for 3 weeks; soilless media with lime, target pH 7.0. As to the method: as §1, §2
The test system of assay [3] is bell pepper plants, Capsicum annuum. Briefly: Iron content in leaves of bell pepper plants grown hydroponically with Fe chelates (elemental analysis). The settings on record: for Iron content in plant leaves: leaves after week 2, finished iron solution of 4 ppm in no-iron Steiner hydroponic solution, pH 8; for Amount of iron delivered / iron content by plant tissue analyses (in words): bell pepper plants, 4 ppm iron chelate, compared with EDTA or EDDHA chelates. As to the method: (§3) Seven (7) identical cultivated varieties of bell pepper plants, Capsicum annuum were grown in individual five-gallon containers deep-water-culture (DWC) containers (the Root Spa bucket system by Hydrofarm) that is continuously aerated by a single oxygen line that stems from an air pump in a soilless media of rockwool surrounded by clay pebbles in a mesh tray that rests on top of the buckets. The pepper plants were grown indoors with an ambient air temperature of around 72° F. The light source came from high-pressure sodium bulbs with a light interval of 12 hours on and 12 hours off.
(§4) The pepper plants were grown with a beginning identical nutritional mix similar to that of a Steiner hydroponic solution. […] The total solution pH was raised to 8 and adjusted daily to maintain the pH at 8. Potassium hydroxide was used to increase the pH. There were 7 treatments of iron added (or not added) to each bucket as follows:
(§5) As more water was needed, the appropriate amount of no-iron Steiner solution and Fe-chelate/Fe-chelate mixture was added to maintain a finished iron solution of 4 ppm.
(§6) Leaf samples (at least two per plant) were collected at the end of the normal nutritional program (2 weeks). […] Elemental analyses of iron content in the plants leaves was carried out after week 2.

Assay [4] shares this test system. Briefly: Overall plant growth of bell pepper plants grown hydroponically with Fe chelates. The settings on record: 2 weeks; 4 ppm iron, Steiner hydroponic solution, pH 8; compared with Fe EDTA and Fe EDDHA. As to the method:
as §3, §4, §5, §6

Take `Cc1ccc(O)c(CN(Cc2cc(C)ccc2O)C(CC(=O)O)C(=O)O)c1` (stereo not drawn) [PP-Cres-Asp]: the “Fe in plant tissue, Calibrachoa” value in assay [1] was determined as 56 ppm. Further, the “Fe in plant tissue, Petunia” value in assay [2] was 80 ppm. In the case of “ethylenediamine-N,N′-bis(2-hydroxyphenylacetic acid [Fe EDDHA, reference compound]”, in assay [3], the “Iron content in plant leaves” value was 91 ppm. In the case of `O=C(O)CN(CCN(CC(=O)O)CC(=O)O)CC(=O)O` [Fe EDTA, ethylenediaminetetraacetic acid, reference compound], the “Iron content in plant leaves” value in assay [3] was determined as 134 ppm. The “Fe in plant tissue, Calibrachoa” value in assay [1] came to 39 ppm. In assay [2], the “Fe in plant tissue, Petunia” value amounted to 45 ppm. Consider p-cresol iminodiacetic acid [Cres-IDA], for which, in assay [3], the “Amount of iron delivered / iron content by plant tissue analyses (in words)” value is recorded as “substantially greater than EDTA or EDDHA chelates”. Turning to `CCCc1cc(CN(CC(=O)O)CC(=O)O)c(O)c(OC)c1` [DHE-IDA], the “Amount of iron delivered / iron content by plant tissue analyses (in words)” value in assay [3] is on record as “substantially greater than EDTA or EDDHA chelates”. Besides, the “Overall growth of the plants” value in assay [4] was “comparable to controls using conventional EDTA or EDDHA and superior to plants where only iron salts without chelate were used”.
